Values after ≈ are worked out from the molar mass of the structure shown. Where two headings read alike, the source gives them in different places. Starred links: 1 amine or outer side, 2 acyl side, 3 side chain; linkers in the order of their positions; H or OH if unused. Positions of bridges follow the written chain, without caps; N, C: chain ends. Residues, ends and D or L forms follow the SMILES beside them. *: point of attachment. C18 diacid = O=C(O)CCCCCCCCCCCCCCCCC(=O)*; γGlu = O=C(O)[C@H](CCC(=O)[*:2])N[*:1]; AEEA = NCCOCCOCC(=O)O
Tests used:
[1] = Solubility of CNP compounds at pH 4.0 and pH 6.5; type: physicochemical
Procedure, shortened: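 Freeze-dried peptide was brought to a nominal ≥4000-5000 nmol/mL in 5 mM sodium acetate, 250 mM glycerol (pH 4.0) or in 8 mM sodium phosphate, 23 mg/mL glycerol (pH 6.5 via NaOH titration). Samples were equilibrated at room temperature overnight if undissolved, and supernatant concentration was measured by CAD.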

[2] = Thioflavin T (ThT) assay: lagtime and peptide recovery; type: physicochemical; settings: assay terminated after 45 hours; for LagTime (h) at pH 6.5: ThT assay, pH 6.5, 37° C.
Procedure, shortened: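 ThT (final about 1 μM) was added to peptide supernatants at pH 4.0 and 6.5 and incubated at 37 °C with orbital shaking for 45 h. Fluorescence (ex 444/em 485 nm) was read every 20 min, and lag-time was taken as the time to onset of signal rise. Recovery is the RP-UPLC (215 nm) total peak area after vs. before incubation.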

[3] = 8 mM sodium phosphate, 23 mg/mL glycerol, pH 6.5, room temperature, read-out: Solubility at pH 6.5
[4] = 5 mM sodium acetate, 250 mM glycerol, pH 4.0, room temperature, read-out: Solubility at pH 4.0

| Compound | solubility [1, 3] [mM] | LagTime (h) at pH 6.5 [2] [h] | solubility [1, 4] [mM] | LagTime (h) at pH 4.0 ([2]; ThT, 37° C., shaking) [h] |
| --- | --- | --- | --- | --- |
| CC[C@H](C)[C@@H]1NC(=O)[C@H](CCCNC(=N)N)NC(=O)[C@H](CC(=O)O)NC(=O)[C@H](CC(C)C)NC(=O)[C@@H]2CCCN2C(=O)[C@H](CC(C)C)NC(=O)CNC(=O)[C@H](Cc2ccccc2)NC(=O)[C@@H](NC(=O)CNC(=O)[C@H](CCC(N)=O)NC(=O)[C@H](CO)NC(=O)[C@H](CC(C)C)NC(=O)CNC(=O)[C@H](CCCCN)NC(=O)[C@H](CCCCN)NC(=O)[C@H](CCC(N)=O)NC(=O)[C@H](C)NC(=O)CNC(=O)[C@H](CCCCN)NC(=O)[C@H](Cc2ccc(O)cc2)NC(=O)[C@H](CCCCN)NC(=O)[C@H](CCCNC(=N)N)NC(=O)[C@H](C)NC(=O)COCCOCCNC(=O)COCCOCCNC(=O)COCCOCCNC(=O)COCCOCCNC(=O)CC[C@H](NC(=O)CC[C@H](NC(=O)CC[C@H](NC(=O)CC[C@H](NC(=O)CC[C@H](NC(=O)CCCCCCCCCCCCCCCCC(=O)O)C(=O)O)C(=O)O)C(=O)O)C(=O)O)C(=O)O)CSSC[C@@H](C(=O)O)NC(=O)CNC(=O)[C@H](CC(C)C)NC(=O)CNC(=O)[C@H](CO)NC(=O)[C@H](CC(C)C)NC(=O)[C@H](CO)NC(=O)CNC1=O [compound 9407] ({C18 diacid-γGlu-γGlu-γGlu-γGlu-γGlu-AEEA-AEEA-AEEA-AEEA}-ARKYKGAQKKGLSQGCFGLPLDRIGSLSGLGC-OH; disulfide 16-32) | 6.69 (≈ 32.3 mg/mL) | 45 |  |  |
| CC[C@H](C)[C@@H]1NC(=O)[C@H](CCCNC(=N)N)NC(=O)[C@H](CC(=O)O)NC(=O)[C@H](CC(C)C)NC(=O)[C@@H]2CCCN2C(=O)[C@H](CC(C)C)NC(=O)CNC(=O)[C@H](Cc2ccccc2)NC(=O)[C@@H](NC(=O)CNC(=O)[C@H](CCC(N)=O)NC(=O)[C@H](CO)NC(=O)[C@H](CC(C)C)NC(=O)CNC(=O)[C@H](CCCCN)NC(=O)[C@H](CCCCN)NC(=O)[C@H](CCC(N)=O)NC(=O)[C@H](C)NC(=O)CNC(=O)[C@H](CCCCN)NC(=O)[C@H](Cc2ccc(O)cc2)NC(=O)[C@H](CCCCN)NC(=O)[C@H](CCCNC(=N)N)NC(=O)[C@H](C)NC(=O)[C@H](CCC(N)=O)NC(=O)[C@@H]2CCCN2C(=O)[C@H](Cc2c[nH]cn2)NC(=O)[C@H](CCC(=O)O)NC(=O)[C@H](CCC(N)=O)NC(=O)COCCOCCNC(=O)COCCOCCNC(=O)COCCOCCNC(=O)COCCOCCNC(=O)CC[C@H](NC(=O)CC[C@H](NC(=O)CC[C@H](NC(=O)CC[C@H](NC(=O)CC[C@H](NC(=O)CC[C@H](NC(=O)CCCCCCCCCCCCCCCCC(=O)O)C(=O)O)C(=O)O)C(=O)O)C(=O)O)C(=O)O)C(=O)O)CSSC[C@@H](C(=O)O)NC(=O)CNC(=O)[C@H](CC(C)C)NC(=O)CNC(=O)[C@H](CO)NC(=O)[C@H](CC(C)C)NC(=O)[C@H](CO)NC(=O)CNC1=O [compound 1404] ({C18 diacid-γGlu-γGlu-γGlu-γGlu-γGlu-γGlu-AEEA-AEEA-AEEA-AEEA}-QEHPQARKYKGAQKKGLSQGCFGLPLDRIGSLSGLGC-OH; disulfide 21-37) | 6.88 (≈ 38.4 mg/mL) | 45 |  |  |
| CC[C@H](C)[C@@H]1NC(=O)[C@H](CCCNC(=N)N)NC(=O)[C@H](CC(=O)O)NC(=O)[C@H](CC(C)C)NC(=O)[C@@H]2CCCN2C(=O)[C@H](CC(C)C)NC(=O)CNC(=O)[C@H](Cc2ccccc2)NC(=O)[C@@H](NC(=O)CNC(=O)[C@H](CO)NC(=O)[C@H](CO)NC(=O)[C@@H](NC(=O)CNC(=O)[C@@H](NC(=O)[C@H](CCCCN)NC(=O)[C@H](CCC(N)=O)NC(=O)[C@H](C)NC(=O)CNC(=O)[C@H](Cc2c[nH]cn2)NC(=O)[C@H](Cc2ccc(O)cc2)NC(=O)COCCOCCNC(=O)COCCOCCNC(=O)COCCOCCNC(=O)CC[C@H](NC(=O)CCCCCCCCCCCCCCCCC(=O)O)C(=O)O)[C@@H](C)O)C(C)C)CSSC[C@@H](C(=O)O)NC(=O)CNC(=O)[C@H](CC(C)C)NC(=O)CNC(=O)[C@H](CO)NC(=O)[C@H](CC(C)C)NC(=O)[C@H](CO)NC(=O)CNC1=O [compound 1352] ({C18 diacid-γGlu-AEEA-AEEA-AEEA}-YHGAQKTGVSSGCFGLPLDRIGSLSGLGC-OH; disulfide 13-29) | 7.73 (≈ 28.9 mg/mL) | 23 |  |  |
| CC[C@H](C)[C@@H]1NC(=O)[C@H](CCCNC(=N)N)NC(=O)[C@H](CC(=O)O)NC(=O)[C@H](CC(C)C)NC(=O)[C@@H]2CCCN2C(=O)[C@H](CC(C)C)NC(=O)CNC(=O)[C@H](Cc2ccccc2)NC(=O)[C@@H](NC(=O)CNC(=O)[C@H](CCC(N)=O)NC(=O)[C@H](CO)NC(=O)[C@H](CO)NC(=O)CNC(=O)[C@H](CCCCN)NC(=O)[C@H](CCCCN)NC(=O)[C@H](CCC(N)=O)NC(=O)[C@H](C)NC(=O)CNC(=O)[C@@H]2CCCN2C(=O)[C@H](C)NC(=O)[C@H](CCC(N)=O)NC(=O)CNC(=O)COCCOCCNC(=O)COCCOCCNC(=O)CC[C@H](NC(=O)CCCCCCCCCCCCCCCCC(=O)O)C(=O)O)CSSC[C@@H](C(=O)O)NC(=O)CNC(=O)[C@H](CC(C)C)NC(=O)CNC(=O)[C@H](CO)NC(=O)[C@H](CC(C)C)NC(=O)[C@H](CO)NC(=O)CNC1=O [compound 9384] ({C18 diacid-γGlu-AEEA-AEEA}-GQAPGAQKKGSSQGCFGLPLDRIGSLSGLGC-OH; disulfide 15-31; C-terminus assumed) | 7.56 (≈ 28 mg/mL) | 45 |  |  |
| CC[C@H](C)[C@@H]1NC(=O)[C@H](CCCNC(=N)N)NC(=O)[C@H](CC(=O)O)NC(=O)[C@H](CC(C)C)NC(=O)[C@@H]2CCCN2C(=O)[C@H](CC(C)C)NC(=O)CNC(=O)[C@H](Cc2ccccc2)NC(=O)[C@@H](NC(=O)CNC(=O)[C@H](CO)NC(=O)[C@H](CO)NC(=O)[C@H](CC(C)C)NC(=O)CNC(=O)[C@H](CCCCN)NC(=O)[C@H](CCCCN)NC(=O)[C@H](CCC(N)=O)NC(=O)[C@H](C)NC(=O)CNC(=O)[C@H](Cc2c[nH]cn2)NC(=O)[C@H](CCC(=O)O)NC(=O)COCCOCCNC(=O)COCCOCCNC(=O)CC[C@H](NC(=O)CCCCCCCCCCCCCCCCC(=O)O)C(=O)O)CSSC[C@@H](C(=O)O)NC(=O)CNC(=O)[C@H](CC(C)C)NC(=O)CNC(=O)[C@H](CO)NC(=O)[C@H](CC(C)C)NC(=O)[C@H](CO)NC(=O)CNC1=O [compound 1310] ({C18 diacid-γGlu-AEEA-AEEA}-EHGAQKKGLSSGCFGLPLDRIGSLSGLGC-OH; disulfide 13-29) | 7.61 (≈ 27.4 mg/mL) | 45 |  |  |
| CC[C@H](C)[C@@H]1NC(=O)[C@H](CCCNC(=N)N)NC(=O)[C@H](CC(=O)O)NC(=O)[C@H](CC(C)C)NC(=O)[C@@H]2CCCN2C(=O)[C@H](CC(C)C)NC(=O)CNC(=O)[C@H](Cc2ccccc2)NC(=O)[C@@H](NC(=O)CNC(=O)[C@H](CCC(N)=O)NC(=O)[C@H](CO)NC(=O)[C@H](CC(C)C)NC(=O)CNC(=O)[C@H](CCCCN)NC(=O)[C@H](CCCCN)NC(=O)[C@H](CCC(N)=O)NC(=O)[C@H](C)NC(=O)CNC(=O)[C@H](CCCCN)NC(=O)[C@H](Cc2ccc(O)cc2)NC(=O)COCCOCCNC(=O)COCCOCCNC(=O)COCCOCCNC(=O)COCCOCCNC(=O)CC[C@H](NC(=O)CC[C@H](NC(=O)CC[C@H](NC(=O)CCCCCCCCCCCCCCCCC(=O)O)C(=O)O)C(=O)O)C(=O)O)CSSC[C@@H](C(=O)O)NC(=O)CNC(=O)[C@H](CC(C)C)NC(=O)CNC(=O)[C@H](CO)NC(=O)[C@H](CC(C)C)NC(=O)[C@H](CO)NC(=O)CNC1=O [compound 9480] ({C18 diacid-γGlu-γGlu-γGlu-AEEA-AEEA-AEEA-AEEA}-YKGAQKKGLSQGCFGLPLDRIGSLSGLGC-OH; disulfide 13-29) | 6.17 (≈ 26 mg/mL) | 45 | 0.023 (≈ 0.097 mg/mL) |  |
| CC[C@H](C)[C@@H]1NC(=O)[C@H](CCCNC(=N)N)NC(=O)[C@H](CC(=O)O)NC(=O)[C@H](CC(C)C)NC(=O)[C@@H]2CCCN2C(=O)[C@H](CC(C)C)NC(=O)CNC(=O)[C@H](Cc2ccccc2)NC(=O)[C@@H](NC(=O)CNC(=O)[C@H](CCCCN)NC(=O)[C@H](CO)NC(=O)[C@H](CC(C)C)NC(=O)CNC(=O)[C@H](CCCCN)NC(=O)[C@H](CCCCN)NC(=O)[C@H](CCC(N)=O)NC(=O)[C@H](C)NC(=O)CNC(=O)[C@H](CCCCN)NC(=O)[C@H](Cc2ccc(O)cc2)NC(=O)[C@H](CCCCN)NC(=O)[C@H](CCCNC(=N)N)NC(=O)[C@H](C)NC(=O)COCCOCCNC(=O)COCCOCCNC(=O)CC[C@H](NC(=O)CC[C@H](NC(=O)CC[C@H](NC(=O)CC[C@H](NC(=O)CC[C@H](NC(=O)CCCCCCCCCCCCCCCCC(=O)O)C(=O)O)C(=O)O)C(=O)O)C(=O)O)C(=O)O)CSSC[C@@H](C(=O)O)NC(=O)CNC(=O)[C@H](CC(C)C)NC(=O)CNC(=O)[C@H](CO)NC(=O)[C@H](CC(C)C)NC(=O)[C@H](CO)NC(=O)CNC1=O [compound 1470] ({C18 diacid-γGlu-γGlu-γGlu-γGlu-γGlu-AEEA-AEEA}-ARKYKGAQKKGLSKGCFGLPLDRIGSLSGLGC-OH; disulfide 16-32) | 0.595 (≈ 2.7 mg/mL) |  | 6.48 (≈ 29.4 mg/mL) | 45 |

From patent US20240209028A1, “CNP COMPOUNDS” (priority 2022, published 2024)
